Measurements: the supplement of paper PMC11061612

Legend:
Assay in all cases: combination Emax (second highest fraction inhibited in the dose matrix, 72 h); higher = more inhibition; extreme values may be limits of the assay
[1] = tested on: CCRF-CEM (T-Lymphoblastic Leukemia)
How it was run: (§1)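 Bliss excess equals the observed combination effect minus the expected value EA + EB − EA·EB, where EA and EB are the effects of each agent alone. Combination Emax is the second-highest inhibition within the matrix. Inhibition was scaled from CellTiter-Glo 2.0 luminescence, with 0 set by vehicle wells and 1 by blank wells, after 72 hours of two-drug dosing of cells plated in 1536-well plates.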

[2] = tested on: CaR-1 (Colorectal Carcinoma)
How it was run: as §1

[3] = tested on: Calu-3 (Lung Adenocarcinoma)
How it was run: as §1

[4] = tested on: DEL (T-Cell Non-Hodgkin's Lymphoma)
How it was run: as §1

[5] = tested on: Daoy (Other Solid Carcinomas)
How it was run: as §1

ES4 (Ewing's Sarcoma) = tested on: ES4 (Ewing's Sarcoma)
How it was run: as §1

HOS (Osteosarcoma) = tested on: HOS (Osteosarcoma)
How it was run: as §1

[6] = tested on: HuP-T4 (Pancreatic Carcinoma)
How it was run: as §1

KELLY (Neuroblastoma) = tested on: KELLY (Neuroblastoma)
How it was run: as §1

[7] = tested on: KYSE-520 (Esophageal Squamous Cell Carcinoma)
How it was run: as §1

[8] = tested on: LNCaP-Clone-FGC (Prostate Carcinoma)
How it was run: as §1

[9] = tested on: LU-135 (Small Cell Lung Carcinoma)
How it was run: as §1

[10] = tested on: ME-1 (Acute Myeloid Leukemia)
How it was run: as §1

[11] = tested on: MFE-296 (Endometrial Carcinoma)
How it was run: as §1

[12] = tested on: NCI-H2085 (Non-Small Cell Lung Carcinoma)
How it was run: as §1

[13] = tested on: OVCA420 (Ovarian Carcinoma)
How it was run: as §1

[14] = tested on: TCCSUP (Bladder Carcinoma)
How it was run: as §1

[15] = tested on: TE-15 (Esophageal Squamous Cell Carcinoma)
How it was run: as §1

[16] = tested on: TE-9 (Esophageal Squamous Cell Carcinoma)
How it was run: as §1

Structure (SMILES)	combination Emax [1]	combination Emax [2]	combination Emax [3]	combination Emax [4]	combination Emax [5]	combination Emax (ES4 (Ewing's Sarcoma))	combination Emax (HOS (Osteosarcoma))	combination Emax [6]	combination Emax (KELLY (Neuroblastoma))	combination Emax [7]	combination Emax [8]	combination Emax [9]	combination Emax [10]	combination Emax [11]	combination Emax [12]	combination Emax [13]	combination Emax [14]	combination Emax [15]	combination Emax [16]
CN(C)CCCOc1ccc(-c2ccc3ncc4c(c3c2)n(C2CCOCC2)c(=O)n4C)cn1 [AZD0156] + CCN(CCO)CCCOc1ccc2c(Nc3cc(CC(=O)Nc4cccc(F)c4)[nH]n3)ncnc2c1 [AZD2811] (first compound max 1 µM, 7x7, partner max 1 µM)	0.983	0.145	0.061	0.684	0.303	0.159	0.0916	0.244	0.684	0.224	0.556	0.925	0.2	0.0192	0.547	0.0163	0.111	0.0454	0.0784
Cc1cc2ncnn2cc1Nc1ncc2c(n1)n(C1CCOCC1)c(=O)n2C [AZD7648] + C[C@@H]1COCCN1C2=NC(=NC(=C2)C3(CC3)[S@](=N)(=O)C)C4=C5C=CNC5=NC=C4 [AZD6738] (first compound max 10 µM, 7x7, partner max 10 µM)	0.997	0.649	0.291	0.977	0.784	0.686	0.691	0.358	0.955	0.538	0.703	0.552	0.378	0.33	0.608	0.509	0.569	0.713	0.286
CN(C)CCCOc1ccc(-c2ccc3ncc4c(c3c2)n(C2CCOCC2)c(=O)n4C)cn1 [AZD0156] + C=CCn1c(=O)c2cnc(Nc3ccc(N4CCN(C)CC4)cc3)nc2n1-c1cccc(C(C)(C)O)n1 [AZD1775] (first compound max 1 µM, partner max 1 µM)	1	0.128	0.0731	1	0.847	0.438	0.24	0.217	1	0.32	0.738	0.644	0.413	0.258	0.6	0.141	0.356	0.454	0.231
COc1cccc2c1C(=O)c1c(O)c3c(c(O)c1C2=O)C[C@@](O)(C(=O)CO)C[C@@H]3O[C@H]1C[C@H](N)[C@H](O)[C@H](C)O1 [Doxorubicin] + Cc1cc2ncnn2cc1Nc1ncc2c(n1)n(C1CCOCC1)c(=O)n2C [AZD7648] (first compound max 1 µM, 7x7, partner max 10 µM)	1	0.807	0.301	1	0.875	0.945	0.972	0.657	0.789	0.295	0.819	0.817	0.355	0.295	0.546	0.224	0.665	0.721	0.148
CCN(CCO)CCCOc1ccc2c(Nc3cc(CC(=O)Nc4cccc(F)c4)[nH]n3)ncnc2c1 [AZD2811] + C=CCn1c(=O)c2cnc(Nc3ccc(N4CCN(C)CC4)cc3)nc2n1-c1cccc(C(C)(C)O)n1 [AZD1775] (first compound max 1 µM, partner max 1 µM)	1	0.223	0.0931	1	0.827	0.377	0.298	0.27	1	0.306	0.699	0.921	0.299	0.152	0.688	0.179	0.352	0.496	0.207
COc1cccc(OCCCN)c1-c1cc(Nc2cnc(C#N)cn2)n[nH]1 [Prexasertib] + Cc1cc2ncnn2cc1Nc1ncc2c(n1)n(C1CCOCC1)c(=O)n2C [AZD7648] (first compound max 1 µM, 7x7, partner max 10 µM)	1	0.67	0.416	1	0.965	0.93	0.826	0.839	1	0.728	0.83	0.584	0.622	0.569	0.825	0.699	0.704	0.831	0.516
Cc1cc2ncnn2cc1Nc1ncc2c(n1)n(C1CCOCC1)c(=O)n2C [AZD7648] + CN(C)CCCOc1ccc(-c2ccc3ncc4c(c3c2)n(C2CCOCC2)c(=O)n4C)cn1 [AZD0156] (first compound max 10 µM, 7x7, partner max 1 µM)	0.521	0.266	0.215	0.412	0.313	0.0963	0.273	0.261	0.878	0.305	0.546	0.172	0.213	0.147	0.234	0.262	0.197	0.236	0.183
Cc1cc2ncnn2cc1Nc1ncc2c(n1)n(C1CCOCC1)c(=O)n2C [AZD7648] + O=C(c1cc(Cc2n[nH]c(=O)c3ccccc23)ccc1F)N1CCN(C(=O)C2CC2)CC1 [Olaparib] (first compound max 10 µM, 7x7, partner max 10 µM)	0.454	0.111	0.0691	0.693	0.357	0.572	0.195	0.141	0.362	0.234	0.533	0.394	0.172	0.0811	0.036	0.0465	0.134	0.182	0.119
CN(C)CCCOc1ccc(-c2ccc3ncc4c(c3c2)n(C2CCOCC2)c(=O)n4C)cn1 [AZD0156] + C[C@@H]1COCCN1C2=NC(=NC(=C2)C3(CC3)[S@](=N)(=O)C)C4=C5C=CNC5=NC=C4 [AZD6738] (first compound max 1 µM, 7x7, partner max 10 µM)	0.99	0.435	0.297	0.988	0.848	0.844	0.706	0.46	0.987	0.603	0.737	0.599	0.394	0.388	0.824	0.545	0.591	0.734	0.354
COc1cccc(OCCCN)c1-c1cc(Nc2cnc(C#N)cn2)n[nH]1 [Prexasertib] + CN(C)CCCOc1ccc(-c2ccc3ncc4c(c3c2)n(C2CCOCC2)c(=O)n4C)cn1 [AZD0156] (first compound max 1 µM, 7x7, partner max 1 µM)	1	0.627	0.409	1	0.958	0.912	0.854	0.84	1	0.725	0.827	0.554	0.622	0.583	0.92	0.676	0.689	0.831	0.596
Cc1cc2ncnn2cc1Nc1ncc2c(n1)n(C1CCOCC1)c(=O)n2C [AZD7648] + CCN(CCO)CCCOc1ccc2c(Nc3cc(CC(=O)Nc4cccc(F)c4)[nH]n3)ncnc2c1 [AZD2811] (first compound max 10 µM, 7x7, partner max 1 µM)	1	0.472	0.235	0.727	0.445	0.279	0.273	0.342	0.692	0.337	0.535	0.893	0.27	0.147	0.717	0.232	0.387	0.283	0.234
COc1cccc(OCCCN)c1-c1cc(Nc2cnc(C#N)cn2)n[nH]1 [Prexasertib] + C[C@@H]1COCCN1C2=NC(=NC(=C2)C3(CC3)[S@](=N)(=O)C)C4=C5C=CNC5=NC=C4 [AZD6738] (first compound max 1 µM, 7x7, partner max 10 µM)	1	0.696	0.405	1	0.956	0.879	0.902	0.808	1	0.728	0.842	0.634	0.633	0.554	0.872	0.692	0.712	0.874	0.481
C[C@@H]1COCCN1c1cc(C2([S@](C)(=N)=O)CC2)nc(-c2ccnc3[nH]ccc23)n1 [AZD6738] + O=C(c1cc(Cc2n[nH]c(=O)c3ccccc23)ccc1F)N1CCN(C(=O)C2CC2)CC1 [Olaparib] (first compound max 10 µM, 7x7, partner max 10 µM)	1	0.441	0.193	0.993	0.867	0.817	0.685	0.331	0.897		0.73	0.604	0.538	0.391	0.43	0.364	0.646	0.738	0.436
CCc1c2c(nc3ccc(O)cc13)-c1cc3c(c(=O)n1C2)COC(=O)[C@]3(O)CC [SN-38] + O=C(c1cc(Cc2n[nH]c(=O)c3ccccc23)ccc1F)N1CCN(C(=O)C2CC2)CC1 [Olaparib] (first compound max 0.3 µM, 7x7, partner max 10 µM)	1	0.912	0.398	1	0.971	0.767	0.96	0.948	0.884			0.843	0.497	0.595	0.132		0.665	0.811	0.458
